Values quoted from earlier work in patent US20030162756A1, “Use of 2-hydroxy or 2-acetyloxy-4-trifluoromethylbenzoic acid derivatives as an agent for the treatment and prevention of mild cognitive impairment” (J. Uriach & CIA. S.A., priority 2001, published 2003).

Tested on: platelet aggregation
Conditions: described in U.S. Pat. No. 4,096,252; cited from earlier work

Q: Which “activity as platelet anti-aggregant” value does the source give for `O=C(O)c1ccc(C(F)(F)F)cc1O` [HTB, 2-hydroxy-4-trifluoromethylbenzoic acid] here?
A: remarkable activity as platelet anti-aggregant
